US20130165368A1, “ANTIMICROBIAL COMPOUNDS” (priority 2010, published 2013)
≈ marks a conversion by molar mass, not a printed value. Like-named read-outs stand apart in the source and are kept apart here.

Experiments:
Format in all cases: cell-based
[1] = tested on: Escherichia coli; assay: MIC agar dilution, micro-organism 1 (10418); settings: Escherichia coli 10418, read-out: MIC
Method: (§1) Throughout the period of testing the microbial strains were subcultured and incubated for 18-20 hours at 37° C. on a weekly basis. Horse blood agar plates were used to sustain the micro-organisms both prior to and throughout testing. The alkoxylated alkanols listed in Table II below were obtained (these are obtainable from Sigma-Aldrich Company Ltd, Dorset, England), each having a GC purity of at least 97%.
(§2) Molar equivalent concentrations were used to allow comparison between compounds of differing molecular mass. Due to weighing difficulties, any compound in solid form was melted in a water bath prior to dilution. To make ten-times strength concentrations, which takes into account agar dilution, 0.0352 mmol of each compound was weighed into plastic universal bottles and 4 mL of sterile distilled water (SDW) was added. To produce a homogenous emulsion the universals were vortexed; once achieved the emulsions were serial diluted by adding 2 mL to 2 mL of SDW.
(§3) Myristyl alcohol and lauryl alcohol were re-weighed and dissolved in 25 μL of the polar solvent 1-methyl-2-pyrrolidone (M6762; Sigma-Aldrich) in sterile glass universals due to an inability to achieve an even suspension. To maintain an even emulsion in the presence of SDW 37.5 μL of the non-ionic detergent Tween 20 (P1379, Sigma-Aldrich) was also added. 3.9375 mL of SDW was added to these, to create a 4 mL volume; they were vortexed and diluted as before.
(§4) For every 100 mL of Isosensitest agar (IST) (CM0471; Oxoid, Basingstoke, England), 3.1 g of the IST powder was added to 100 mL SDW (as per manufacturer's instructions) and sterilised for 15 minutes at 121° C. Once sterilised, the molten agar was cooled to 50° C. in a water-bath. Subsequently 4.8 g of CCEY powder (BC2160; Bioconnections, Wetherby, England), also known as Brazier's medium, was added to 100 mL SDW for every 100 mL of agar needed. This was then sterilised for 15 minutes at 121° C. Once sterilised the molten agar was cooled to 50° C. in a water-bath and 4 mL of egg-yolk emulsion (S2073; TCS Biosciences Ltd, Buckingham, United Kingdom) and 1 mL of lysed defibrinated horse blood (HB035; TCS Biosciences Ltd, Buckingham, United Kingdom) were also added for every 100 mL needed. Horse blood lysis is achieved by dilution to half concentration with SDW; when fully lysed the mixture will turn dark red in colour.
(§5) 18 mL agar was added to each universal and then poured into sterile Petri dishes. This step creates a 1/10 dilution resulting in agar plates of the required strength. Control plates for each set of strains were created by adding 18 mL of agar to 2 mL of SDW.
(§6) Suspensions of each bacterial species were prepared with a density equal to that of a 0.5 McFarland standard using a densitometer. All suspensions were made using sterile distilled water and fresh 18-20 hour cultures. As a 0.5 McFarland standard contains 1.5×10^8 CFU/mL and the multipoint inoculators applies 1 μL spots of liquid, each bacterial suspension was diluted 1/15 (20 μL suspension to 280 μL sterile distilled water).
(§7) Bacterial suspensions were prepared from fresh 18-24 hour cultures as previously described. 1 μL of each strain was inoculated onto all 100 agar plates containing a different chemical concentration and the 2 control plates. This was done using a multipoint inoculator which inoculates 20 strains per plate. All plates were incubated for 22 hours at 37° C. in aerobic conditions.
(§8) Each plate was examined for bacterial growth after 22 and 48 hours, with each being incubated in between examinations. A positive result was recorded as growth of ≧10 colonies. A negative result was recorded as growth of <10 colonies as this is equivalent to 99.9% inhibition. The lowest concentration of chemical that inhibited growth was recorded as the MIC. The results are recorded in Table IV below, where the numbers are quoted in mmol/L. […]

[2] = tested on: Providencia rettgeri; assay: MIC agar dilution, micro-organism 3 (7475); settings: Providencia rettgeri 7475, read-out: MIC
Method: as §1, §2, §3, §4, §5, §6, §7, §8

[3] = tested on: Steptococcus pyogenes; assay: MIC agar dilution, micro-organism 11 (8306); settings: Steptococcus pyogenes 8306, read-out: MIC
Method: as §1, §2, §3, §4, §5, §6, §7, §8

[4] = tested on: Staphylococcus aureus (MRSA); assay: MIC agar dilution, micro-organism 12 (11939); settings: Staphylococcus aureus, MRSA, Staphylococcus aureus (MRSA) 11939, read-out: MIC
Method: as §1, §2, §3, §4, §5, §6, §7, §8

[5] = tested on: Staphylococcus aureus; assay: MIC agar dilution, micro-organism 13 (6571); settings: Staphylococcus aureus, Staphylococcus aureus 6571, read-out: MIC
Method: as §1, §2, §3, §4, §5, §6, §7, §8

[6] = tested on: Staphylococcus epidermidis; assay: MIC agar dilution, micro-organism 14 (11047); settings: Staphylococcus epidermidis 11047, read-out: MIC
Method: as §1, §2, §3, §4, §5, §6, §7, §8

[7] = tested on: Listeria monocytogenes; assay: MIC agar dilution, micro-organism 15 (11994); settings: Listeria monocytogenes 11994, read-out: MIC
Method: as §1, §2, §3, §4, §5, §6, §7, §8

[8] = tested on: Enterococcus faecium; assay: MIC agar dilution, micro-organism 16 (7171); settings: Enterococcus faecium 7171, read-out: MIC
Method: as §1, §2, §3, §4, §5, §6, §7, §8

[9] = tested on: Enterococcus faecalis; assay: MIC agar dilution, micro-organism 17 (775); settings: Enterococcus faecalis 775, read-out: MIC
Method: as §1, §2, §3, §4, §5, §6, §7, §8

[10] = tested on: Bacillus subtilis; assay: MIC agar dilution, micro-organism 18 (9372); settings: Bacillus subtilis 9372, read-out: MIC
Method: as §1, §2, §3, §4, §5, §6, §7, §8

[11] = tested on: Candida albicans; assay: MIC agar dilution, micro-organism 19 (90028); settings: Candida albicans 90028, read-out: MIC
Method: as §1, §2, §3, §4, §5, §6, §7, §8

[12] = tested on: Candida glabrata; assay: MIC agar dilution, micro-organism 20 (3943); settings: Nakaseomyces glabratus, Candida glabrata 3943, read-out: MIC
Method: as §1, §2, §3, §4, §5, §6, §7, §8

CCCCCCCCCCCCCCO [M0, 1-Tetradecanol, reference compound]
MIC ([1]; 22 hrs): > 880 µM
MIC ([1]; 48 hrs): > 880 µM
MIC ([2]; 22 hrs): > 880 µM
MIC ([2]; 48 hrs): > 880 µM
MIC ([3]; 22 h, 22 hrs): 220 µM (≈ 47.2 µg/mL)
MIC ([3]; 48 h, 48 hrs): 220 µM (≈ 47.2 µg/mL)
MIC ([4]; 22 h, 22 hrs): 110 µM (≈ 23.6 µg/mL)
MIC ([4]; 48 h, 48 hrs): 110 µM (≈ 23.6 µg/mL)
MIC ([5]; 22 h, 22 hrs): 440 µM (≈ 94.3 µg/mL)
MIC ([5]; 48 h, 48 hrs): 440 µM (≈ 94.3 µg/mL)
MIC ([6]; 22 hrs): 110 µM (≈ 23.6 µg/mL)
MIC ([6]; 48 hrs): 220 µM (≈ 47.2 µg/mL)
MIC ([7]; 22 hrs): > 880 µM
MIC ([7]; 48 hrs): > 880 µM
MIC ([8]; 22 hrs): > 880 µM
MIC ([8]; 48 hrs): 220 µM (≈ 47.2 µg/mL)
MIC ([9]; 22 hrs): > 880 µM
MIC ([9]; 48 hrs): 110 µM (≈ 23.6 µg/mL)
MIC ([10]; 22 hrs): > 880 µM
MIC ([10]; 48 hrs): > 880 µM
MIC ([11]; 22 hrs): > 880 µM
MIC ([11]; 48 hrs): > 880 µM
MIC ([12]; 22 h, 22 hrs): > 880 µM
MIC ([12]; 48 h, 48 hrs): > 880 µM

CCCCCCCCCCCCCCOCCOCCOCCOCCOCCOCCOCCOCCO [M8, Octaethylene Glycol Monotetradecyl Ether]
MIC ([1]; 22 hrs): > 880 µM
MIC ([1]; 48 hrs): > 880 µM
MIC ([2]; 22 hrs): > 880 µM
MIC ([2]; 48 hrs): > 880 µM
MIC ([3]; 22 h, 22 hrs): 550 µM (≈ 312 µg/mL)
MIC ([3]; 48 h, 48 hrs): 55 µM (≈ 31.2 µg/mL)
MIC ([4]; 22 h, 22 hrs): 440 µM (≈ 249 µg/mL)
MIC ([4]; 48 h, 48 hrs): 440 µM (≈ 249 µg/mL)
MIC ([5]; 22 h, 22 hrs): 110 µM (≈ 62.3 µg/mL)
MIC ([5]; 48 h, 48 hrs): 110 µM (≈ 62.3 µg/mL)
MIC ([6]; 22 hrs): 220 µM (≈ 125 µg/mL)
MIC ([6]; 48 hrs): 220 µM (≈ 125 µg/mL)
MIC ([7]; 22 hrs): > 880 µM
MIC ([7]; 48 hrs): > 880 µM
MIC ([8]; 22 hrs): > 880 µM
MIC ([8]; 48 hrs): > 880 µM
MIC ([9]; 22 hrs): 55 µM (≈ 31.2 µg/mL)
MIC ([9]; 48 hrs): 55 µM (≈ 31.2 µg/mL)
MIC ([10]; 22 hrs): 110 µM (≈ 62.3 µg/mL)
MIC ([10]; 48 hrs): 110 µM (≈ 62.3 µg/mL)
MIC ([11]; 22 hrs): > 880 µM
MIC ([11]; 48 hrs): > 880 µM
MIC ([12]; 22 h, 22 hrs): > 880 µM
MIC ([12]; 48 h, 48 hrs): > 880 µM

CCCCCCCCCCCCCCCCCCO [S0, 1-Octadecanol, reference compound]
MIC ([1]; 22 hrs): > 880 µM
MIC ([1]; 48 hrs): > 880 µM
MIC ([2]; 22 hrs): > 880 µM
MIC ([2]; 48 hrs): > 880 µM
MIC ([3]; 22 h, 22 hrs): 880 µM (≈ 238 µg/mL)
MIC ([3]; 48 h, 48 hrs): 880 µM (≈ 238 µg/mL)
MIC ([4]; 22 h, 22 hrs): > 880 µM
MIC ([4]; 48 h, 48 hrs): > 880 µM
MIC ([5]; 22 h, 22 hrs): > 880 µM
MIC ([5]; 48 h, 48 hrs): > 880 µM
MIC ([6]; 22 hrs): > 880 µM
MIC ([6]; 48 hrs): > 880 µM
MIC ([7]; 22 hrs): > 880 µM
MIC ([7]; 48 hrs): > 880 µM
MIC ([8]; 22 hrs): > 880 µM
MIC ([8]; 48 hrs): > 880 µM
MIC ([9]; 22 hrs): > 880 µM
MIC ([9]; 48 hrs): > 880 µM
MIC ([10]; 22 hrs): > 880 µM
MIC ([10]; 48 hrs): > 880 µM
MIC ([11]; 22 hrs): > 880 µM
MIC ([11]; 48 hrs): > 880 µM
MIC ([12]; 22 h, 22 hrs): 880 µM (≈ 238 µg/mL)
MIC ([12]; 48 h, 48 hrs): 880 µM (≈ 238 µg/mL)
